Activity calls are given as the source filed them. The rule behind the calls is not given here.

This data set relates to CCRIS mutagenicity, Ames/micronucleus/aberration tests. The data set can be described thus: CCRIS mutagenicity studies.

Regarding `CC(=O)CN(CC(C)O)N=O` (centres undefined), the mutagenic call (Test System: AMES SALMONELLA TYPHIMURIUM, Strain/Indicator: TA100, Metabolic Activation: HAMSTER, LIVER, S-9, 3-METHYLCHOLANTHRENE, Method: PREINCUBATION) is “active; positive”; the mutagenic call (Test System: AMES SALMONELLA TYPHIMURIUM, Strain/Indicator: TA100, Metabolic Activation: HAMSTER, LIVER, S-9, PHENOBARBITAL, Method: PREINCUBATION) was “active; positive”; the mutagenic call (Test System: AMES SALMONELLA TYPHIMURIUM, Strain/Indicator: TA100, Metabolic Activation: HAMSTER, LIVER, S-9, Method: PREINCUBATION) is “active; positive”; the mutagenic call (Test System: AMES SALMONELLA TYPHIMURIUM, Strain/Indicator: TA100, Metabolic Activation: HUMAN, LIVER, S-9, Method: PREINCUBATION) was “active; positive”; the mutagenic call (Test System: AMES SALMONELLA TYPHIMURIUM, Strain/Indicator: TA100, Metabolic Activation: MONKEY, LIVER, S-9, Method: PREINCUBATION) is “active; positive”; the mutagenic call (Test System: AMES SALMONELLA TYPHIMURIUM, Strain/Indicator: TA100, Metabolic Activation: MOUSE, LIVER, S-9, 3-METHYLCHOLANTHRENE, Method: PREINCUBATION) is “active; positive”. Moreover, the mutagenic call reads like this: (Test System: AMES SALMONELLA TYPHIMURIUM, Strain/Indicator: TA100, Metabolic Activation: MOUSE, LIVER, S-9, PHENOBARBITAL, Method: PREINCUBATION) “active; positive”; (Test System: AMES SALMONELLA TYPHIMURIUM, Strain/Indicator: TA100, Metabolic Activation: MOUSE, LIVER, S-9, Method: PREINCUBATION) “active; positive”; (Test System: AMES SALMONELLA TYPHIMURIUM, Strain/Indicator: TA100, Metabolic Activation: RABBIT, LIVER, S-9, Method: PREINCUBATION) “active; positive”; (Test System: AMES SALMONELLA TYPHIMURIUM, Strain/Indicator: TA100, Metabolic Activation: RAT, LIVER, CYTOSOL, PCB, Method: PREINCUBATION) “active; positive”; (Test System: AMES SALMONELLA TYPHIMURIUM, Strain/Indicator: TA100, Metabolic Activation: RAT, LIVER, MICROSOMES AND CYTOSOL, PCB, Method: PREINCUBATION) “active; positive”; (Test System: AMES SALMONELLA TYPHIMURIUM, Strain/Indicator: TA100, Metabolic Activation: RAT, LIVER, MICROSOMES AND G6PDH, PCB, Method: PREINCUBATION) “active; positive”. The mutagenic call reads like this: (Test System: AMES SALMONELLA TYPHIMURIUM, Strain/Indicator: TA100, Metabolic Activation: RAT, LIVER, MICROSOMES, PCB, Method: PREINCUBATION) “active; positive”; (Test System: AMES SALMONELLA TYPHIMURIUM, Strain/Indicator: TA100, Metabolic Activation: RAT, LIVER, S-9 (HEATED), PCB, Method: PREINCUBATION) “active; positive”; (Test System: AMES SALMONELLA TYPHIMURIUM, Strain/Indicator: TA100, Metabolic Activation: RAT, LIVER, S-9, 3-METHYLCHOLANTHRENE, Method: PREINCUBATION) “active; positive”; (Test System: AMES SALMONELLA TYPHIMURIUM, Strain/Indicator: TA100, Metabolic Activation: RAT, LIVER, S-9, PCB, Method: PREINCUBATION) “active; positive”; (Test System: AMES SALMONELLA TYPHIMURIUM, Strain/Indicator: TA100, Metabolic Activation: RAT, LIVER, S-9, PHENOBARBITAL, Method: PREINCUBATION) “active; positive”; (Test System: AMES SALMONELLA TYPHIMURIUM, Strain/Indicator: TA100, Metabolic Activation: RAT, LIVER, S-9, Method: PREINCUBATION) “active; positive”. Moreover, the mutagenic call (Test System: AMES SALMONELLA TYPHIMURIUM, Strain/Indicator: TA100, Metabolic Activation: RAT, LIVER, S-9 WITHOUT NADP+, PCB, Method: PREINCUBATION) was “active; positive”; the mutagenic call (Test System: AMES SALMONELLA TYPHIMURIUM, Strain/Indicator: TA100, Method: PREINCUBATION) is “active; positive”; the mutagenic call (Test System: CHINESE HAMSTER V-79, Strain/Indicator: V-79/OUABAIN, Metabolic Activation: HAMSTER, HEPATOCYTES, Method: CELL-MEDIATED) is “active; positive”.
Take `CC(=O)c1ccc2c(c1)C(=O)C1(CC1)O2`: the mutagenic call by setting is: (Test System: AMES SALMONELLA TYPHIMURIUM, Strain/Indicator: TA98, Metabolic Activation: NONE) “inactive; negative”; (Test System: AMES SALMONELLA TYPHIMURIUM, Strain/Indicator: TA98, Metabolic Activation: S-9) “inactive; negative”; (Test System: AMES SALMONELLA TYPHIMURIUM, Strain/Indicator: TA100, Metabolic Activation: NONE) “inactive; negative”; (Test System: AMES SALMONELLA TYPHIMURIUM, Strain/Indicator: TA100, Metabolic Activation: S-9) “inactive; negative”; (Test System: AMES SALMONELLA TYPHIMURIUM, Strain/Indicator: TA1535, Metabolic Activation: NONE) “inactive; negative”; (Test System: AMES SALMONELLA TYPHIMURIUM, Strain/Indicator: TA1535, Metabolic Activation: S-9) “inactive; negative”. In addition, the mutagenic call is “inactive; negative” (Test System: AMES SALMONELLA TYPHIMURIUM, Strain/Indicator: TA1537, Metabolic Activation: NONE); “inactive; negative” (Test System: AMES SALMONELLA TYPHIMURIUM, Strain/Indicator: TA1537, Metabolic Activation: S-9); “inactive; negative” (Test System: E. COLI, Strain/Indicator: WP2 (HCR), Metabolic Activation: NONE); “inactive; negative” (Test System: E. COLI, Strain/Indicator: WP2 (HCR), Metabolic Activation: S-9).
Regarding `CNCCN(Cc1ccc(OC)cc1)c1ccccn1`, the mutagenic call runs as follows: (Test System: AMES SALMONELLA TYPHIMURIUM, Strain/Indicator: TA97, Metabolic Activation: NONE, Method: STANDARD PLATE) “inactive; negative”; (Test System: AMES SALMONELLA TYPHIMURIUM, Strain/Indicator: TA97, Metabolic Activation: RAT, LIVER, S-9, AROCLOR 1254, Method: STANDARD PLATE) “inactive; negative”; (Test System: AMES SALMONELLA TYPHIMURIUM, Strain/Indicator: TA98, Metabolic Activation: NONE, Method: STANDARD PLATE) “inactive; negative”; (Test System: AMES SALMONELLA TYPHIMURIUM, Strain/Indicator: TA98, Metabolic Activation: RAT, LIVER, S-9, AROCLOR 1254, Method: STANDARD PLATE) “inactive; negative”; (Test System: AMES SALMONELLA TYPHIMURIUM, Strain/Indicator: TA100, Metabolic Activation: NONE, Method: STANDARD PLATE) “inactive; negative”; (Test System: AMES SALMONELLA TYPHIMURIUM, Strain/Indicator: TA100, Metabolic Activation: RAT, LIVER, S-9, AROCLOR 1254, Method: STANDARD PLATE) “inactive; negative”. The mutagenic call is “inactive; negative” (Test System: AMES SALMONELLA TYPHIMURIUM, Strain/Indicator: TA102, Metabolic Activation: NONE, Method: STANDARD PLATE) and “inactive; negative” (Test System: AMES SALMONELLA TYPHIMURIUM, Strain/Indicator: TA102, Metabolic Activation: RAT, LIVER, S-9, AROCLOR 1254, Method: STANDARD PLATE).
